Measured values as given in patent publication US4108991A, “N-aminosulfenyl derivatives of aldicarb” (priority 1976, dated 1978).

What was measured:
Mexican bean beetle [1] = test: Initial contact activity, leaf dip, Mexican bean beetle; assay type: in vivo, Epilachna varivestis Muls.; conditions: Epilachna varivestis, foliar, 48 h, initial, BB, 48 hours, read-out: Percent Kill
Procedure: (§1) Initial Contact Activity: One half gram of test compound was dissolved in 40 ml of acetone and this solution was dispersed in 360 ml of water containing one drop of isooctylphenyl polyethoxyethanol. Aliquots of this solution, which corresponds to 1250 ppm of active ingredient, were diluted with an appropriate amount of water to provide solutions containing various concentrations of active ingredient. Test organisms and techniques were as follows: The activity against the Mexican bean beetle (Epilachna varivestis Muls.) and the southern armyworm (Spodoptera eridania [Cram.]) was evaluated by dipping the leaves of pinto bean plants into the test solution and infesting the leaves with the appropriate immature-form insects when the foiliage had dried; the activity against the pea aphid (Acyrthosiphon pisum [Harris]) was evaluated on broad bean plants whose leaves were dipped before infestation with adult aphids; the activity against two-sotted spider mites (Tetranychus urticae Koch) was evaluated on pinto bean plants whose leaves were dipped after infestation with adult mites; the activity against the milkweed bug (Oncopeltus fasciatus [Dallas]), and the plum curculio (Conotrachelus nenuphar [Herbst]) was evaluated by spraying the test solutions into glass dishes or jars containing the adult insects; the activity against the confused flour beetle (Tribolium confusum duVal) was evaluated by introducing the insects into glass dishes which had been previously sprayed with test solution and allowed to dry. All organisms in the test were maintained in a holding room at 80° F and 50% relative humidity for an exposure period of 48 hours. At the end of this time, the dead and living insects or mites were counted, and the percent kill was calculated.

Two-spotted spider mite = test: Initial contact activity, leaf dip, two-spotted spider mite; assay type: in vivo, Tetranychus urticae Koch; conditions: Tetranychus urticae, foliar, 48 h, initial, SM, 48 hours, read-out: Percent Kill
Procedure: as §1

Milkweed bug = test: Initial contact activity, spray, milkweed bug; assay type: in vivo, Oncopeltus fasciatus [Dallas]; conditions: Oncopeltus fasciatus, 48 h, initial, MWB, 48 hours, read-out: Percent Kill
Procedure: as §1

Plum curculio = test: Initial contact activity, spray, plum curculio; assay type: in vivo, Conotrachelus nenuphar [Herbst]; conditions: Conotrachelus nenuphar, initial, PC, 48 hours, read-out: Percent Kill
Procedure: as §1

Confused flour beetle = test: Initial contact activity, sprayed dishes, confused flour beetle; assay type: in vivo, Tribolium confusum duVal; conditions: Tribolium confusum, initial, FB, 48 hours, read-out: Percent Kill
Procedure: as §1

Mexican bean beetle [2] = test: Residual (7-day) contact activity, Mexican bean beetle; assay type: in vivo, Epilachna varivestis Muls.; conditions: Epilachna varivestis, 168 h, residual 7-day, BB, read-out: Percent Kill
Procedure: as §1
(§2) Residual Contact Activity: The residual contact activity of the compounds was determined on the same organisms using the techniques described above, except that in each case the treated surface was allowed to dry and was exposed to normal light and air for seven days before introduction of the mites or insects.

Southern armyworm = test: Residual (7-day) contact activity, southern armyworm; assay type: in vivo, Spodoptera eridania [Cram.]; conditions: Spodoptera eridania, 168 h, residual 7-day, AW, read-out: Percent Kill
Procedure: as §1, §2

Structure (SMILES)	mortality at 156 ppm (Mexican bean beetle [1]) [%]	mortality at 312 ppm (Mexican bean beetle [1]) [%]	mortality at 625 ppm (Mexican bean beetle [1]) [%]	mortality at 1250 ppm (Mexican bean beetle [1]) [%]	mortality at 10 ppm (Two-spotted spider mite) [%]	mortality at 39 ppm (Two-spotted spider mite) [%]	mortality at 156 ppm (Two-spotted spider mite) [%]	mortality at 1250 ppm (Two-spotted spider mite) [%]	mortality at 10 ppm (Milkweed bug) [%]	mortality at 39 ppm (Milkweed bug) [%]	mortality at 156 ppm (Milkweed bug) [%]	mortality at 1250 ppm (Milkweed bug) [%]	mortality at 10 ppm (Plum curculio) [%]	mortality at 39 ppm (Plum curculio) [%]	mortality at 156 ppm (Plum curculio) [%]	mortality at 1250 ppm (Plum curculio) [%]	mortality at 156 ppm (Confused flour beetle) [%]	mortality at 312 ppm (Confused flour beetle) [%]	mortality at 1250 ppm (Confused flour beetle) [%]	mortality at 312 ppm (Mexican bean beetle [2]) [%]	further results
CSC(C)(C)C=NOC(=O)N(C)SN1CCOCC1 [Example II, 2-methyl-2-(methylthio)propanol O-[(N-methyl-N-morpholinosulfenyl)carbamoyl]oxime]	100	100	100	100	100	100	100	100	25	100	100	100	0	5	47	100	5	51	80	88	mortality at 1250 ppm (Mexican bean beetle [2]): 100%; mortality at 312 ppm (Southern armyworm): 64%; mortality at 1250 ppm (Southern armyworm): 55%
CCCCN(CCCC)SN(C)C(=O)ON=CC(C)(C)SC [Example III, 2-methyl-2-(methylthio)propanal O-[(dibutylaminosulfenyl)(methyl)carbamoyl]oxime]	40	63	95	100	98	89	100	100	5	16	100	100	0	5	0	55	0	7.5	70	0	mortality at 1250 ppm (Mexican bean beetle [2]): 92%; mortality at 312 ppm (Southern armyworm): 0%; mortality at 1250 ppm (Southern armyworm): 0%
CSC(C)(C)C=NOC(=O)N(C)SN(C)Cc1ccccc1 [Example I, 2-methyl-2-(methylthio)propanol O-[(N-benzyl-N-methylaminosulfenyl)(methyl)carbamoyl]oxime]	82	94	100	100	96	98	100	100	5	80	100	100	10	0	0	45	5	5	2.5	0	mortality at 1250 ppm (Mexican bean beetle [2]): 89%; mortality at 312 ppm (Southern armyworm): 0%; mortality at 1250 ppm (Southern armyworm): 91%
